Test results reported in patent US7897602B2, “Indolinone compounds as kinase inhibitors” (Development Center for Biotechnology, priority 2009, dated 2011).

How the values were obtained:
Assay type in all cases: biochemical
Aurora A kinase = target: T1, Aurora A kinase (Homo sapiens, UniProt O14965); assay: Aurora A kinase assay ([γ-33P]ATP, CHOCKtide substrate)
T1 construct: purchased Upstate
T1 sequence (O14965 1-403): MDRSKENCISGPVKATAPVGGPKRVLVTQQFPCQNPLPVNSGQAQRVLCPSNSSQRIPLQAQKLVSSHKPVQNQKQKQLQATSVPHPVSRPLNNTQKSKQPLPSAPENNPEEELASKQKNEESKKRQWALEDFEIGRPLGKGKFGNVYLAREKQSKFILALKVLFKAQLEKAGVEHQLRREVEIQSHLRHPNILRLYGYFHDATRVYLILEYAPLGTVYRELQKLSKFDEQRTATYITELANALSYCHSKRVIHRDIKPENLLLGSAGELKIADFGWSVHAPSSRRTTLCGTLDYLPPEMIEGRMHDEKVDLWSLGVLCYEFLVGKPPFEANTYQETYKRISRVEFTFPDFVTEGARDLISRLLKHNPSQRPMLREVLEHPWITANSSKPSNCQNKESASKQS
Procedure, shortened: (§1)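 Radiometric filter-binding format: 33P incorporation into CHOCKtide counted after acid stop and filtration. Reactions ran 30 min at 33 °C, Aurora A with 10 μM ATP, Aurora B with 40 μM ATP. IC50 taken as concentration giving half-maximal kinase inhibition.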

Aurora B kinase = target: T2, Aurora B kinase (Homo sapiens, UniProt Q96GD4); assay: Aurora B kinase assay ([γ-33P]ATP, CHOCKtide substrate)
T2 construct: purchased Cell signaling
T2 sequence (Q96GD4 whole entry): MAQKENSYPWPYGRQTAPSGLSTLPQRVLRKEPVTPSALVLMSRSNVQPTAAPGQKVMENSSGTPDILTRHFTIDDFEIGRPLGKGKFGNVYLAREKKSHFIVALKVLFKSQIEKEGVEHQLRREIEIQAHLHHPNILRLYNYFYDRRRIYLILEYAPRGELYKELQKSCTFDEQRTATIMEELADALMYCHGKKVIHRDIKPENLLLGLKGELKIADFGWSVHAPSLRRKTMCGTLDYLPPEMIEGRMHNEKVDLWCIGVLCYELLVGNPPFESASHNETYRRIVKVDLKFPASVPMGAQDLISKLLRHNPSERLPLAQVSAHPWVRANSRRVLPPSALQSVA
Procedure, shortened: as §1

c-Met kinase = target: T3, c-Met kinase (Homo sapiens, UniProt P08581); assay: c-Met kinase assay (33P incorporation into Poly(Glu-Tyr)); conditions: 500 nM test compound
T3 construct: recombinant N-terminal 6×His-tagged c-Met kinase domain construct expressed from baculovirus; 6xHis (N); made in house
T3 sequence (P08581 1078-1345 limits assumed): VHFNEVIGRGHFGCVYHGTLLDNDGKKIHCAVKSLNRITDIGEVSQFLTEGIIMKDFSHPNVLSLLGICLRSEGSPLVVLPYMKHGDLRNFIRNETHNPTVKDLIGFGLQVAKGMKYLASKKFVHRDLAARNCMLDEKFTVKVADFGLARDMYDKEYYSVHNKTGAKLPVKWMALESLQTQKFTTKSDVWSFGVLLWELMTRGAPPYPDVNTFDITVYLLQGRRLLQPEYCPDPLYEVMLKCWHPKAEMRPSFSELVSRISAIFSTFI
Procedure, shortened: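 Single-concentration test (500 nM compound) at 30° C for 30 min, pH 7.0 MOPS buffer with 100 μM ATP and [33P]-γ-ATP. Enzyme was baculovirus-expressed 6×His c-Met kinase domain (5 ng), substrate Poly(Glu-Tyr) 4:1. Inhibition percentage derived from filter-bound counts relative to DMSO control.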

Row | SMILES | inhibition at 1 µM (Aurora A kinase; 1.0 μM test compound) [%] | inhibition at 1 µM (Aurora B kinase; 1.0 μM test compound) [%] | inhibition at 0.5 µM (c-Met kinase) [%] | IC50 (Aurora A kinase) [nM] | IC50 (Aurora B kinase) [nM] | Aurora A kinase assay Inhibition at 1.0 μM (%) (Aurora A kinase; 1.0 μM test compound, 1 µM) | Aurora B kinase assay Inhibition at 1.0 μM (%) (Aurora B kinase; 1.0 μM test compound, 1 µM) | Inhibition at 500 nM (%) c-Met (c-Met kinase; 0.5 µM) [%]
1 | O=C(O)CCc1c(/C=C2\C(=O)Nc3ccc(-c4ccc(F)cc4)cc32)[nH]c2c1C(=O)CCC2 [DCB-70109, (Z)-5-(4-fluorophenyl)-3-((3-carboxyethyl-4-oxo-4,5,6,7-tetrahydro-1H-indol-2-yl)methylene)indolin-2-one] | 69.1 | 1.8 | -10.8 | – | – | – | – | –
2 | O=C(O)CCc1c(/C=C2\C(=O)Nc3cc(-c4cc5ccccc5s4)ccc32)[nH]c2c1C(=O)CCC2 [DCB-70080, (Z)-6-(benzo[b]thiophen-2-yl)-3-((3-carboxyethyl-4-oxo-4,5,6,7-tetrahydro-1H-indol-2-yl)methylene)indolin-2-one] | 40.3 | 35.2 | -21.3 | – | – | – | – | –
3 | CCOC(=O)CCc1c(/C=C2\C(=O)Nc3ccc(NC(=O)c4ccccc4)cc32)[nH]c2c1C(=O)CCC2 [DCB-70096, (Z)-5-benazmido-3-((3-(3-ethoxy-3-oxopropyl)-4-oxo-4,5,6,7-tetrahydro-1H-indol-2-yl)methylene)indolin-2-one] | 38.6 | 15.1 | 8.9 | – | – | – | – | –
4 | CNS(=O)(=O)c1ccc2c(c1)/C(=C/c1[nH]c3c(c1CCC(=O)N1CCN(C)CC1)C(=O)CCC3)C(=O)N2 [DCB-70117] | 34.9 | 5.3 | 41.4 | – | – | – | – | –
5 | CCOC(=O)CCc1c(/C=C2\C(=O)Nc3ccc([N+](=O)[O-])cc32)[nH]c2c1C(=O)CCC2 [DCB-70062, (Z)-5-nitro-3-((3-(3-ethoxy-3-oxopropyl)-4-oxo-4,5,6,7-tetrahydro-1H-indol-2-yl)methylene)indolin-2-one] | -7.2 | -4.1 | 34.1 | – | – | – | – | –
6 | O=C(O)CCc1c(C=C2C(=S)Nc3ccccc32)[nH]c2c1C(=O)CCC2 [DCB-70084, 3-((3-carboxyethyl-4-oxo-4,5,6,7-tetrahydro-1H-indol-2-yl)methylene)indolin-2-thione] | 10.9 | 17.9 | 11.5 | – | – | – | – | –
7 | CCOC(=O)CCc1c(/C=C2\C(=O)Nc3ccc(NC(=O)Nc4ccccc4)cc32)[nH]c2c1C(=O)CCC2 [DCB-70134, (Z)-ethyl 3-(4-oxo-2-((2-oxo-5-(3-phenylureido)indolin-3-ylidene)methyl)-4,5,6,7-tetrahydro-1H-indol-3-yl)propanoate] | 16.4 | 5.7 | -0.3 | – | – | – | – | –
8 | CCOC(=O)CCc1c(/C=C2\C(=O)Nc3ccc(S(=O)(=O)NC)cc32)[nH]c2c1C(=O)CCC2 [DCB-70064, (Z)-5-(N-methylsulfamoyl)-3-((3-(3-ethoxy-3-oxopropyl)-4-oxo-4,5,6,7-tetrahydro-1H-indol-2-yl)methylene)indolin-2-one] | 78.6 | 22.2 | 48.1 | 313 | – | – | – | –
9 | O=C(O)CCc1c(/C=C2\C(=O)Nc3ccc(NS(=O)(=O)c4ccccc4)cc32)[nH]c2c1C(=O)CCC2 [DCB-70103, (Z)-5-phenylsulfonamido-3-((3-carboxyethyl-4-oxo-4,5,6,7-tetrahydro-1H-indol-2-yl)methylene)indolin-2-one] | 98.9 | 80.1 | 37.9 | 12.3 | 156 | – | – | –
10 | O=C(O)CCc1c(/C=C2\C(=O)Nc3ccccc32)[nH]c2c1C(=O)CCC2 [DCB-70052, (Z)-3-((3-carboxyethyl-4-oxo-4,5,6,7-tetrahydro-1H-indol-2-yl)methylene)indolin-2-one] | 74.8 | 13 | 14.3 | 209 | – | – | – | –
11 | O=C(O)CCc1c(/C=C2\C(=O)Nc3cc(-c4cc(F)cc(F)c4)ccc32)[nH]c2c1C(=O)CCC2 [DCB-70101, (Z)-6-(3,5-difluorophenyl)-3-((3-carboxyethyl-4-oxo-4,5,6,7-tetrahydro-1H-indol-2-yl)methylene)indolin-2-one] | 38.5 | 17.7 | 26.7 | – | – | – | – | –
12 | CCOC(=O)CCc1c(/C=C2\C(=O)Nc3ccc(F)cc32)[nH]c2c1C(=O)CCC2 [DCB-70053, (Z)-5-fluoro-3-((3-(3-ethoxy-3-oxopropyl)-4-oxo-4,5,6,7-tetrahydro-1H-indol-2-yl)methylene)indolin-2-one] | – | – | – | 1980 | – | 38.2 | 3.5 | 17.4
13 | CCOC(=O)CCc1c(/C=C2\C(=O)Nc3cc(-c4ccc(O)cc4)ccc32)[nH]c2c1C(=O)CCC2 [DCB-70066, (Z)-6-(4-hydroxyphenyl)-3-((3-(3-ethoxy-3-oxopropyl)-4-oxo-4,5,6,7-tetrahydro-1H-indol-2-yl)methylene)indolin-2-one] | 40.1 | 25.3 | 15.2 | – | – | – | – | –
14 | CC(=O)Nc1ccc2c(c1)/C(=C/c1[nH]c3c(c1CCC(=O)O)C(=O)CCC3)C(=O)N2 [DCB-70104, (Z)-5-acetamido-3-((3-carboxyethyl-4-oxo-4,5,6,7-tetrahydro-1H-indol-2-yl)methylene)indolin-2-one] | 83.6 | 12.8 | 19.7 | 252 | – | – | – | –
15 | O=C(O)CCc1c(/C=C2\C(=O)Nc3cc(-c4ccc(O)c(O)c4)ccc32)[nH]c2c1C(=O)CCC2 [DCB-70078, (Z)-6-(3,4-dihydroxyphenyl)-3-((3-carboxyethyl-4-oxo-4,5,6,7-tetrahydro-1H-indol-2-yl)methylene)indolin-2-one] | 91.6 | 63.4 | -54.1 | 46.1 | 438 | – | – | –
16 | CCS(=O)(=O)c1ccc2c(c1)/C(=C/c1[nH]c3c(c1CCC(=O)O)C(=O)CCC3)C(=O)N2 [DCB-70116, (Z)-5-ethylsulfonyl-3-((3-carboxyethyl-4-oxo-4,5,6,7-tetrahydro-1H-indol-2-yl)methylene)indolin-2-one] | 100 | 7 | 38.1 | – | – | – | – | –
17 | O=C(O)CCc1c(/C=C2\C(=O)Nc3cc(-c4ccc(F)cc4)ccc32)[nH]c2c1C(=O)CCC2 [DCB-70099, (Z)-6-(4-fluorophenyl)-3-((3-carboxyethyl-4-oxo-4,5,6,7-tetrahydro-1H-indol-2-yl)methylene)indolin-2-one] | 47.5 | 30 | 22.7 | – | – | – | – | –
18 | CCOC(=O)CCc1c(/C=C2\C(=O)Nc3cc(-c4ccc5c(c4)OCO5)ccc32)[nH]c2c1C(=O)CCC2 [DCB-70128, (Z)-ethyl 3-(2-((6-(benzo[d][1,3]dioxol-5-yl)-2-oxoindolin-3-ylidene)methyl)-4-oxo-4,5,6,7-tetrahydro-1H-indol-3-yl)propanoate] | 5.1 | 13.5 | 12.5 | – | – | – | – | –
19 | CCOC(=O)CCc1c(/C=C2\C(=O)Nc3ccc(NC(=O)Nc4cccc5ccccc45)cc32)[nH]c2c1C(=O)CCC2 [DCB-70129, (Z)-ethyl 3-(2-((5-(3-naphthalen-1-ylureido)-2-oxoindolin-3-ylidene)methyl)-4-oxo-4,5,6,7-tetrahydro-1H-indol-3-yl)propanoate] | 15.6 | 5.8 | 5 | – | – | – | – | –
